Patent publication US20250288704A1, “CXCR4-LIGANDS FOR DIAGNOSTIC AND THERAPEUTIC USE AND PRECURSORS THEREOF” (priority 2021, published 2025)
Read-outs that look alike come from different tables or passages of the source. Positions of bridges follow the written chain, without caps; N, C: chain ends. Non-standard residues stand in square brackets, D forms with d. Residues, ends and D or L forms follow the SMILES beside them. Groups on a side chain read outwards from the residue. Chains are numbered I, II in the order given. *: point of attachment. X9 = NCCNCC(CNCCN)C(=O)NC[C@@H](NC(=O)CC[C@@H](NC(=O)N[C@H](CCC(=O)O)C(=O)O)C(=O)O)C(=O)*; X2 = OC[C@H]1O[C@@H](O[C@H]2[C@H](O)[C@@H](O)[C@H](*)O[C@@H]2CO)[C@H](O)[C@@H](O)[C@H]1O; X8 = NCCNCC(CNCCN)C(=O)NC[C@@H](NC(=O)CCC(NC(=O)N[C@H](CCC(=O)O)C(=O)O)C(=O)O)C(=O)*; X5 = CC(C)(C)[Si](F)(c1ccc(C[N+](C)(C)CC(=O)*)cc1)C(C)(C)C; DOTA = O=C(O)CN1CCN(CC(=O)O)CCN(CC(=O)*)CCN(CC(=O)O)CC1; 2Nal = N[C@@H](Cc1ccc2ccccc2c1)C(=O)O; dNMeOrn = CN[C@H](CCCN)C(=O)O; d(hCys) = N[C@H](CCS)C(=O)O; Mercaptoacetyl = O=C(CS)*; X4 = OCC1OC(*)C(O)C(O)C1O; 4Abz = Nc1ccc(C(=O)O)cc1; dDap = NC[C@@H](N)C(=O)O; Ahx = NCCCCCC(=O)O

Columns and labels:
CXCR4 [1] = target: T1, CXCR4 (Homo sapiens, UniProt P61073); assay: Determination of IC50: competition with 125I-Fc-131 on CXCR4-positive Jurkat cells; type: binding; parameters: CXCR4-positive Jurkat T lymphocyte cells were grown in Gibco's RPMI 1640 GlutaMAX medium; endogenous in cells; host or cells: Jurkat T lymphocyte cells (whole cells in suspension, 400.000 per tube);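 also: test compound at 10^−5 to 10^−11 M competed for 2 h at 8 °C with the radioligand on 400,000 cells per well, bound versus free activity measured by γ-counting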
T1 sequence (P61073 whole entry): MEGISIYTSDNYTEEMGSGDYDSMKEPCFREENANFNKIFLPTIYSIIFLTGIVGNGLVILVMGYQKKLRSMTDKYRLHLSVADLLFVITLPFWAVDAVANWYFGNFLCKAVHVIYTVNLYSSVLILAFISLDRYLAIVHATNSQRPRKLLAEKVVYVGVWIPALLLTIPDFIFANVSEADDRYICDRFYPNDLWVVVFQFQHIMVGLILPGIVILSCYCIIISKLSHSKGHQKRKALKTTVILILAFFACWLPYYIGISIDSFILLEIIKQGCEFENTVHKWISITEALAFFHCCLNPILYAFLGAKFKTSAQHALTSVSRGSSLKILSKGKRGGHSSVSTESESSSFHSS
Method: For in vitro experiments, cells were counted in a hemocytometer using trypan blue as contrast agent. The cell suspension was centrifuged, and the pellet resuspended in HBSS (+1 wt % BSA) to a concentration of 2 mio cells/mL. […] 200 μL of cell suspension (400.000 cells per well) were added to obtain a final peptide concentration range of 10^−5-10^−11 M. The tubes were cooled for 2 h at 8° C. to prevent internalization. The experiment was stopped by removal of the supernatant. 200 μL HBSS were added onto the cells, the suspension centrifuged, and the supernatant pooled with the respective first fractions. This step was repeated once more before the tubes containing the supernatants and the ones containing the cell pellets were subjected to activity measurement in the γ-counter.

[2] = system: Jurkat tumor-bearing CB-17 SCID mice; assay: Biodistribution in Jurkat tumor-bearing CB-17 SCID mice; type: in vivo; conditions: 1 h p.i., 1 mouse
How it was run: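 CB17-SCID mice bore subcutaneous Jurkat xenografts (2-3×10^7 cells in Matrigel, shoulder), used at 5-8 mm tumor diameter. About 0.5-20 MBq (0.02-0.20 nmol) of 125I-, 177Lu-, 99mTc-, 18F- or 68Ga-labeled ligand given by tail vein; organs weighed and γ-counted after set times.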

[3] = system: CXCR4-expressing Chem_1 cells; assay: Determination of internalization, dual tracer with 125I-Fc-131; type: cell-based; conditions: for Cell-bound [%] / Internalized [%]: of total cellular activity
How it was run: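 Chem_1 cells grown in DMEM-F12 with 10% FBS at 37 °C; wells (n=3 per time point) received medium or AMD3100 (1 mM stock) to block receptors. Unbound, surface-bound and NaOH-lysed internalized fractions were γ-counted; data corrected for non-specific internalization and referred to standard ligand specific internalization.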

[4] = Octanol/PBS partition coefficient (logD7.4); type: physicochemical; conditions: n-octanol/PBS pH 7.4, radiolabeled compound
Method: The tubes were vortexed at maximum speed for 3 min to ensure equilibrium before centrifugation at 15.000×g for 5 min on a Biofuge 15 from Heraeus Holding GmbH (Osterode, Germany). An aliquot of 100 μL of each fraction was measured in the γ-counter and the log D7.4 calculated as follows: […]

[5] = Biodistribution in Daudi xenograft bearing CB-17 SCID mice; type: in vivo; conditions: mouse, iv, total radioactivity, 1 h p.i., CB-17 SCID female mice
CXCR4 [6] = target: T1, CXCR4; assay: Determination of inverse IC50 (invIC50): radiolabeled peptide displaced by Fc-131 on Jurkat cells
Method: For in vitro experiments, cells were counted in a hemocytometer using trypan blue as contrast agent. The cell suspension was centrifuged, and the pellet resuspended in HBSS (+1 wt % BSA) to a concentration of 2 mio cells/mL. 8×3 polystyrene tubes were loaded with 25 μL of the standard ligand ^125I-Fc-131 (see 4.1, 1.00 nM in HBSS) and 25 μL of the ligand to investigate in the respective concentration (10^−4-10^−10 M, n=3 for each concentration). 200 μL of cell suspension (400.000 cells per well) were added to obtain a final peptide concentration range of 10^−5-10^−11 M. The tubes were cooled for 2 h at 8° C. to prevent internalization. The experiment was stopped by removal of the supernatant. 200 μL HBSS were added onto the cells, the suspension centrifuged, and the supernatant pooled with the respective first fractions. This step was repeated once more before the tubes containing the supernatants and the ones containing the cell pellets were subjected to activity measurement in the γ-counter.
For the determination of inverse IC50 (invIC50) values the protocol for the determination of regular IC50 values was resumed with minor changes. The peptide under investigation was radioactively labeled and a stock solution was prepared in HBSS (2.00 nM). A concentration gradient of the standard ligand Fc-131 was prepared in HBSS (10^−4-10^−10 M). A cell tube was then containing 25 μL of the radioactive peptide solution, 25 μL of the respective Fc-131 solution and 200 μL cell suspension (400.000 cells). The experiment was conducted as described above.

[7] = 2,000 pmol cold substance co-injected
[8] = co-injection of 1,000 μmol (so in the source) cold substance vs 36 pmol

Compound | Internalized in relation to 125I-Fc-131 [%] ([3]; 30 min) | Cell-bound [%] ([3]; 30 min) | Internalized [%] ([3]; 30 min) | Internalization [% Fc-131] ([3]; 90 min) | Internalized in relation to 125I-Fc-131 [%] ([3]; 90 min) | Cell-bound [%] ([3]; 90 min) | Internalized [%] ([3]; 90 min) | logD7.4 [4] | IC50 (CXCR4 [6]) [nM] | other results
C[C@@H](NC(=O)[C@@H](CCCNC(=N)N)NC(=O)[C@@H](CN)NC(=O)CCCCCNC(=O)[C@@H](CNC(=O)CN1CCN(CC(=O)O)CCN(CC(=O)O)CCN(CC(=O)O)CC1)NC(=O)[C@@H](CCS[C@@H]1O[C@H](CO)[C@@H](O[C@@H]2O[C@H](CO)[C@H](O)[C@H](O)[C@H]2O)[C@H](O)[C@H]1O)NC(=O)C[N+](C)(C)Cc1ccc([Si](F)(C(C)(C)C)C(C)(C)C)cc1)C(=O)Nc1ccc(C(=O)NCCC[C@@H]2C(=O)N[C@@H](CCCNC(=N)N)C(=O)N[C@@H](Cc3ccc4ccccc4c3)C(=O)NCC(=O)N[C@H](Cc3ccc(O)cc3)C(=O)N2C)cc1 [CXCR4-SiFA-7 [Ga]] (I: X5-[d(hCys)](X2)[dDap](DOTA)[Ahx][dDap][dR][dA][4Abz] / II: cyclo([dY][dNMeOrn]R[2Nal]G); amide I:C-II:2) | 837 ± 51.4 | 0.11 ± 0.29 | 38.9 ± 1.09 | 1029 % Fc-131 | 1029 ± 66.7 | 0 ± 0.41 | 50.0 ± 1.12 | −1.95 ± 0.05 (8) | – | IC50 (CXCR4 [1]; unlabeled or cold (natGa/natLu) compound vs 125I-Fc-131, Jurkat cells): 6.23 ± 1.57 nM; uptake in liver compared to biodistribution with 36 pmol [2, 7]: 70%; uptake in spleen compared to biodistribution with 36 pmol [2, 7]: 61%; uptake in tumor compared to biodistribution with 36 pmol [2, 7]: 40%; Blood activity level raised by [2, 8]: 310%; tumor uptake compared to un-supplemented injection [2, 8]: 180%; uptake in liver compared to un-supplemented injection [2, 8]: 121%; uptake in muscle compared to un-supplemented injection [2, 8]: 226%; uptake in pancreas compared to un-supplemented injection [2, 8]: 196%; uptake in spleen compared to un-supplemented injection [2, 8]: 114%
C[C@@H](NC(=O)[C@@H](CCCNC(=N)N)NC(=O)[C@@H](CO)NC(=O)[C@@H](CO)NC(=O)[C@@H](CO)NC(=O)CS)C(=O)Nc1ccc(C(=O)NCCC[C@@H]2C(=O)N[C@@H](CCCNC(=N)N)C(=O)N[C@@H](Cc3ccc4ccccc4c3)C(=O)NCC(=O)N[C@H](Cc3ccc(O)cc3)C(=O)N2C)cc1 [Tc-CXCR4-1] (I: Mercaptoacetyl-[dS][dS][dS][dR][dA][4Abz] / II: cyclo([dY][dNMeOrn]R[2Nal]G); amide I:C-II:2) | – | – | – | – | – | – | – | – | – | IC50 (CXCR4 [1]): 20.6 ± 7.52 nM; tissue uptake at 1 h ([5]; Blood, read-out: % iD/g Blood): 0.83 %ID/g; tissue uptake at 1 h ([5]; Heart, read-out: % iD/g Heart): 0.54 %ID/g; tissue uptake at 1 h ([5]; Intestine, read-out: % iD/g Intestine): 1.12 %ID/g; tissue uptake at 1 h ([5]; Kidney, read-out: % iD/g Kidney): 4 %ID/g; tissue uptake at 1 h ([5]; Liver, read-out: % iD/g Liver): 3.54 %ID/g; tissue uptake at 1 h ([5]; Lung, read-out: % iD/g Lung): 1.79 %ID/g; tissue uptake at 1 h ([5]; Muscle, read-out: % iD/g Muscle): 0.16 %ID/g; tissue uptake at 1 h ([5]; Pancreas, read-out: % iD/g Pancreas): 0.22 %ID/g; tissue uptake at 1 h ([5]; Spleen, read-out: % iD/g Spleen): 1.09 %ID/g; tissue uptake at 1 h ([5]; Stomach, read-out: % iD/g Stomach): 0.86 %ID/g; tissue uptake at 1 h ([5]; Tumor, read-out: % iD/g Tumor): 1.41 %ID/g
C[C@@H](NC(=O)[C@@H](CCCNC(=N)N)NC(=O)[C@@H](CN)NC(=O)[C@@H](CO)NC(=O)[C@@H](CCSC1OC(CO)C(O)C(O)C1O)NC(=O)[C@@H](CCSC1OC(CO)C(O)C(O)C1O)NC(=O)CS)C(=O)Nc1ccc(C(=O)NCCC[C@@H]2C(=O)N[C@@H](CCCNC(=N)N)C(=O)N[C@@H](Cc3ccc4ccccc4c3)C(=O)NCC(=O)N[C@H](Cc3ccc(O)cc3)C(=O)N2C)cc1 (stereo partly drawn) [Tc-CXCR4-10] (I: Mercaptoacetyl-[d(hCys)](X4)[d(hCys)](X4)[dS][dDap][dR][dA][4Abz] / II: cyclo([2Nal]G[dY][dNMeOrn]R); amide I:C-II:4) | 226 ± 10.2 | 6.75 ± 0.76 | 18.8± 0.66 | 267 (90 min) % Fc-131 | 267 ± 8.94 | 6.06 ± 0.34 | 31.7 ± 0.52 | −2.32 ± 0.02 (7) | 5.13 ± 1.81 | –
C[C@@H](NC(=O)[C@@H](CCCNC(=N)N)NC(=O)[C@@H](CN)NC(=O)[C@@H](CNC(=O)C(CNCCN)CNCCN)NC(=O)CCC(NC(=O)N[C@H](CCC(=O)O)C(=O)O)C(=O)O)C(=O)Nc1ccc(C(=O)NCCC[C@@H]2C(=O)N[C@@H](CCCNC(=N)N)C(=O)N[C@@H](Cc3ccc4ccccc4c3)C(=O)NCC(=O)N[C@H](Cc3ccc(O)cc3)C(=O)N2C)cc1 (stereo partly drawn) [Tc-CXCR4-15] (cyclo([2Nal]G[dY][dNMeOrn]([4Abz-dA-dR-dDap-X8])R)) | 214 ± 11.7 | 4.35 ± 0.16 | 12.6 ± 0.34 | 232 (90 min) % Fc-131 | 232 ± 15.3 | 3.42 ± 0.27 | 17.9 ± 1.06 | −3.60 ± 0.02 (8) | 3.69 ± 1.32 | –
C[C@@H](NC(=O)[C@@H](CCCNC(=N)N)NC(=O)[C@@H](CN)NC(=O)CCCCCNC(=O)[C@@H](CNC(=O)C(CNCCN)CNCCN)NC(=O)CC[C@@H](NC(=O)N[C@H](CCC(=O)O)C(=O)O)C(=O)O)C(=O)Nc1ccc(C(=O)NCCC[C@@H]2C(=O)N[C@@H](CCCNC(=N)N)C(=O)N[C@@H](Cc3ccc4ccccc4c3)C(=O)NCC(=O)N[C@H](Cc3ccc(O)cc3)C(=O)N2C)cc1 [Tc-CXCR4-16] (cyclo([2Nal]G[dY][dNMeOrn]([4Abz-dA-dR-dDap-Ahx-X9])R)) | 230 ± 10.7 | 3.36 ± 0.45 | 15.0 ± 0.31 | 284 (90 min) % Fc-131 | 284 ± 10.4 | 3.53 ± 0.21 | 19.8 ± 0.15 | −2.70 ± 0.04 (8) | 6.08 ± 1.03 | –
CPCR4-HYNIC [In Literature: 99mTc-CXCR4-L; hydrazino-nicotinic acid attached directly at the D-Orn2 side chain of CPCR4, reference compound] | – | – | – | 29 (90 min) % Fc-131 | – | – | – | −1.84 ± 0.01 (8) | – | invIC50 [nM] (CXCR4 [6]; radiolabeled compound displaced by Fc-131, Jurkat cells): No
